# Source: patent publication US20110130380A1, “Heteroaryl Kinase Inhibitors” (priority 2009, published 2011)
# Target: Cdk9/cyclinT1 (Homo sapiens, UniProt P50750)
# Experiment: Cdk9/cyclinT1 IMAP Protocol (fluorescence polarization kinase assay)
# Conditions: Cdk9_cyclinT1_IC50, Table V; generated using one of the two Cdk9/cyclinT1 assays (IMAP or Alpha Screen), not stated which; ATP 6 uM
# Chain of Cdk9/cyclinT1 (P50750 whole entry): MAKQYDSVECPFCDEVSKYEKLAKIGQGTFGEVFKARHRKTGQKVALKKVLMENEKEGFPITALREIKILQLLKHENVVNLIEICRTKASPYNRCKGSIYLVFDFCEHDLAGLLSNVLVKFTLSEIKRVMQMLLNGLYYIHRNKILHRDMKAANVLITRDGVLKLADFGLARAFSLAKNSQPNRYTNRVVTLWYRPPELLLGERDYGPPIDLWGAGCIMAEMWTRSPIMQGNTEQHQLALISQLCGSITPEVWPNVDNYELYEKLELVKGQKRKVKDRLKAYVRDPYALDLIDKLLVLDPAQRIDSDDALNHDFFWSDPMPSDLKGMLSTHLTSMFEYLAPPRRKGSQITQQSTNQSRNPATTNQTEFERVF
# Chain of Cdk9/cyclinT1 (O60563 whole entry partner): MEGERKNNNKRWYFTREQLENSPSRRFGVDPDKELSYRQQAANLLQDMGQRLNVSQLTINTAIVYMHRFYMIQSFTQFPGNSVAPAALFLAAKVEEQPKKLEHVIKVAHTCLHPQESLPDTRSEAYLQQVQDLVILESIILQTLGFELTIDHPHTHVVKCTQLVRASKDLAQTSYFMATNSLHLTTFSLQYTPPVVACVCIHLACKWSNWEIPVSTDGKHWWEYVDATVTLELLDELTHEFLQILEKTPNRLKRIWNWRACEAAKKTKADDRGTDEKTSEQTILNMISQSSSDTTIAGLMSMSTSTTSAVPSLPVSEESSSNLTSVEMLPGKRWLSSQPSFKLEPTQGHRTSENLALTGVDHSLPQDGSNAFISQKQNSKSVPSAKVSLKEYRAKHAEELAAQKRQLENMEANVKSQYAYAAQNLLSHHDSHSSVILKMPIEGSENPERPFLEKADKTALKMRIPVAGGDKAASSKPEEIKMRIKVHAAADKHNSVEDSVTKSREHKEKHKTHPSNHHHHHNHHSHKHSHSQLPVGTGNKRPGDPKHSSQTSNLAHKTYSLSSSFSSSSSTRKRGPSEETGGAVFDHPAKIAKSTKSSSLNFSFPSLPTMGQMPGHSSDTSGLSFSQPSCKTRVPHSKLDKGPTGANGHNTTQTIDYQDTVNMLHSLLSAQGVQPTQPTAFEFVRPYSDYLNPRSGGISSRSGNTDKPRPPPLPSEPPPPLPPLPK
row,SMILES,IC50 [nM]
1,"CO[C@H]1CNC[C@@H]1C(=O)Nc1cc(-c2nc(NCC3CCOCC3)ccc2Cl)c(Cl)cn1 [Example 150, (3S,4R)-4-Methoxy-pyrrolidine-3-carboxylic acid {3,5′-dichloro-6-[(tetrahydro-pyran-4-ylmethyl)-amino]-[2,4′]bipyridinyl-2′-yl}-amide]",< 8
2,"O=C(Nc1cc(-c2ccc(C(F)(F)F)c(NCC3CCOCC3)n2)c(Cl)cn1)[C@@H]1CCCNC1 [Example 217, (R)-Piperidine-3-carboxylic acid {5′-chloro-6-[(tetrahydro-pyran-4-ylmethyl)-amino]-5-trifluoromethyl-[2,4′]bipyridinyl-2′-yl}-amide]",4
3,"N[C@H]1CC[C@@H](C(=O)Nc2cc(-c3nc(NCC4CCOCC4)ccc3Cl)c(Cl)cn2)C1 [Example 100, (1R,3S)-3-Amino-cyclopentanecarboxylic acid {3,5′-dichloro-6-[(tetrahydro-pyran-4-ylmethyl)-amino]-[2,4′]bipyridinyl-2′-yl}-amide]",< 8
4,"O=C(Nc1cc(-c2nc(NCC3CCOCC3)ccc2Cl)c(Cl)cn1)[C@H]1CCCNC1 [Example 98, (S)-Piperidine-3-carboxylic acid {3,5′-dichloro-6-[(tetrahydro-pyran-4-ylmethyl)-amino]-[2,4′]bipyridinyl-2′-yl}-amide]",14
5,"CC(C)S(=O)(=O)N1CCC[C@H](C(=O)Nc2cc(-c3nc(NC[C@@H]4CCOC(C)(C)C4)ccc3Cl)c(Cl)cn2)C1 (single isomer, unassigned) [Example 172]",1
6,"CO[C@H]1CNC[C@@H]1C(=O)Nc1cc(-c2ccc(F)c(NCC3CCOCC3)n2)c(Cl)cn1 [Example 144, (3S,4R)-4-Methoxy-pyrrolidine-3-carboxylic acid {5′-chloro-5-fluoro-6-[(tetrahydro-pyran-4-ylmethyl)-amino]-[2,4′]bipyridinyl-2′-yl}-amide]",1
7,"CNCCC(=O)Nc1cc(-c2cccc(NCC3CCOCC3)n2)c(Cl)cn1 [Example 64, N-{5′-Chloro-6-[(tetrahydro-pyran-4-ylmethyl)-amino]-[2,4′]bipyridinyl-2′-yl}-3-methylamino-propionamide]",37
8,"O=C(Nc1cc(-c2cccc(NCc3ccc(F)cc3)n2)c(Cl)cn1)[C@@H]1CCCNC1 [Example 53, (R)-Piperidine-3-carboxylic acid [5′-chloro-6-(4-fluoro-benzylamino)-[2,4′]bipyridinyl-2′-yl]-amide]",< 8
9,"O=C(Nc1cc(-c2cccc(NCc3cccc(OC(F)F)c3)n2)c(Cl)cn1)[C@@H]1CCCNC1 [Example 55, (R)-Piperidine-3-carboxylic acid [5′-chloro-6-(3-difluoromethoxy-benzylamino)-[2,4′]bipyridinyl-2′-yl]-amide]",< 8
10,"CC[C@@H]1CC[C@@H](C(=O)Nc2cc(-c3cccc(NCC4CCOCC4)n3)c(Cl)cn2)CN1 (racemic) [Example 229, (3R,6R)-/(3S,6S)-6-Ethyl-piperidine-3-carboxylic acid {5′-chloro-6-[(tetrahydro-pyran-4-ylmethyl)-amino]-[2,4′]bipyridinyl-2′-yl}-amide]",1
11,"CC(C)S(=O)(=O)N[C@@H]1CC[C@H](C(=O)Nc2cc(-c3nc(NCC4CCOCC4)ccc3Cl)c(Cl)cn2)C1 [Example 114, (1S,3R)-3-(Propane-2-sulfonylamino)-cyclopentanecarboxylic acid {3,5′-dichloro-6-[(tetrahydro-pyran-4-ylmethyl)-amino]-[2,4′]bipyridinyl-2′-yl}-amide]",< 8
12,"O=C(Nc1cc(-c2nc(NCC3CCOCC3)ccc2Cl)ccn1)[C@@H]1CCCNC1 [Example 167, (R)-Piperidine-3-carboxylic acid {3-chloro-6-[(tetrahydro-pyran-4-ylmethyl)-amino]-[2,4′]bipyridinyl-2′-yl}-amide]",4
13,"CC(=O)Nc1cc(-c2cccc(NCC3CCOCC3)n2)c(Cl)cn1 [Example 69, N-{5′-Chloro-6-[(tetrahydro-pyran-4-ylmethyl)-amino]-[2,4′]bipyridinyl-2′-yl}-acetamide]",139

# Next, values leading:
row,IC50 [nM],SMILES
1,10,"O=C(Nc1cc(-c2cccc(NCC3CCOCC3)n2)c(Cl)cn1)[C@H]1CNC[C@H](C(F)(F)F)C1 (single isomer, unassigned) [Example 162]"
2,5,"C[C@H]1CC[C@H](C(=O)Nc2cc(-c3cccc(NCC4CCOCC4)n3)c(Cl)cn2)CN1 (single isomer, unassigned) [Example 147]"
3,2,"C[C@H]1CC[C@H](C(=O)Nc2cc(-c3cccc(NC[C@@H]4CCOC(C)(C)C4)n3)c(Cl)cn2)CN1 (single isomer, unassigned) [Example 243]"
4,1,"O=C(Nc1cc(-c2cccc(NCC3(F)CCOCC3)n2)c(Cl)cn1)[C@@H]1CCCNC1 [Example 237, (R)-Piperidine-3-carboxylic acid {5′-chloro-6-[(4-fluoro-tetrahydro-pyran-4-ylmethyl)-amino]-[2,4′]bipyridinyl-2′-yl}-amide]"
5,1,"C[C@@H]1CC(CNc2cccc(-c3cc(NC(=O)[C@@H]4CCCNC4)ncc3Cl)n2)C[C@H](C)O1 (stereo partly drawn) [Example 159, (R)-Piperidine-3-carboxylic acid {5′-chloro-6-[((2R,6S)-2,6-dimethyl-tetrahydro-pyran-4-ylmethyl)-amino]-[2,4′]bipyridinyl-2′-yl}-amide]"
6,9,"N[C@@H]1CCC[C@H](C(=O)Nc2cc(-c3cccc(NCC4CCOCC4)n3)c(Cl)cn2)C1 (racemic) [Example 59, (1S,3R)-/(1R,3S)-3-Amino-cyclohexanecarboxylic acid {5′-chloro-6-[(tetrahydro-pyran-4-ylmethyl)-amino]-[2,4′]bipyridinyl-2′-yl}-amide]"
7,55,"O=C(Nc1cc(-c2cccc(NCC3CCOCC3)n2)c(Cl)cn1)[C@@H]1CNC[C@H](C(F)(F)F)C1 (single isomer, unassigned) [Example 183]"
8,10,"O=C(Nc1cc(-c2cccc(NCC3CCCCO3)n2)c(Cl)cn1)[C@@H]1CCCNC1 (stereo partly drawn) [Example 34, (R)-Piperidine-3-carboxylic acid {5′-chloro-6-[(tetrahydro-pyran-2-ylmethyl)-amino]-[2,4′]bipyridinyl-2′-yl}-amide]"
9,46,"C[C@H]1CNC[C@H](C(=O)Nc2cc(-c3cccc(NCC4CCOCC4)n3)c(Cl)cn2)C1 (racemic) [Example 104, (3R,5R)-/(3S,5S)-5-Methyl-piperidine-3-carboxylic acid {5′-chloro-6-[(tetrahydro-pyran-4-ylmethyl)-amino]-[2,4′]bipyridinyl-2′-yl}-amide]"

# Same assay, conditions: Cdk9_cyclinT1_IC50, generated using one of the two Cdk9/cyclinT1 assays (IMAP or Alpha Screen), not specified per value; ATP 6 uM
row,IC50 [nM],SMILES
1,< 8,"O=C(Nc1cc(-c2cnc(Cl)c(NCC3CCOCC3)c2)c(Cl)cn1)[C@@H]1CCCNC1 [Example 302, (R)-Piperidine-3-carboxylic acid {6,5′-dichloro-5-[(tetrahydro-pyran-4-ylmethyl)-amino]-[3,4′]bipyridinyl-2′-yl}-amide]"
2,25,"CC(C)(C)OC(=O)N1CCC[C@@H](C(=O)Nc2cc(-c3cnc(Cl)c(NCC4CCOCC4)c3)c(Cl)cn2)C1 [Example 303, (R)-3-{6,5′-Dichloro-5-[(tetrahydro-pyran-4-ylmethyl)-amino]-[3,4′]bipyridinyl-2′-ylcarbamoyl}-piperidine-1-carboxylic acid tert-butyl ester]"
3,46,"COc1ccncc1-c1cc(NC(=O)[C@@H]2CCCNC2)ncc1Cl [Example 306, (R)-Piperidine-3-carboxylic acid (5′-chloro-4-methoxy-[3,4′]bipyridinyl-2′-yl)-amide]"
